Patent US4448962A, “Substituted quinoline carboxylic acid derivatives” (Kyorin Seiyaku Kabushiki Kaisha, priority 1978, dated 1984)
In brackets after ≈: the same amount, converted by molar mass. Counter-ions that a name gives are not always drawn. Like-named read-outs stand apart in the source and are kept apart here.

Experiments:
Assay in all cases: Antibacterial spectrum (Minimum Inhibitory Concentration)
Assay type in all cases: cell-based
[1] = system: Bacillus subtilis PCI 219
From the text: (§1) The antibacterial tests were done according to the method authorized by the Chemotherapeutic Society of Japan.

E. coli ATCC 10536 = conditions: Escherichia coli
From the text: as §1

[2] = system: Escherichia coli NIHJ JC-2
From the text: as §1

[3] = system: Klebsiella pneumoniae IFO 3512
From the text: as §1

Pr. vulgaris XK Denken = conditions: Proteus vulgaris, read-out: Minimum Inhibitory Concentration
From the text: as §1

[4] = system: Proteus vulgaris IFO 3167
From the text: as §1

Ps. aeruginosa IFO 12689 = conditions: Pseudomonas aeruginosa
From the text: as §1

Ps. aeruginosa IID 1130 = conditions: Pseudomonas aeruginosa
From the text: as §1

Ps. aeruginosa IID 1210 = conditions: Pseudomonas aeruginosa
From the text: as §1

[5] = system: Pseudomonas aeruginosa V-1
From the text: as §1

[6] = system: Salmonella enteritidies IID 604
From the text: as §1

Ser. marcescens IID 619 = conditions: Serratia marcescens
From the text: as §1

Ser. marcescens IID 620 = conditions: Serratia marcescens
From the text: as §1

[7] = system: Serratia marcescens IID 618
From the text: as §1

Sta. aureus ATCC 14775 = conditions: Staphylococcus aureus
From the text: as §1

[8] = system: Staphylococcus aureus 209P; conditions: read-out: Minimum Inhibitory Concentration
From the text: as §1

Shigella sonnei IID 969 = conditions: IID969; Shigella sonnei IID 969, Gram -
From the text: as §1

[9] = system: Mycobacterium smegmatis IFO 3083; conditions: Mycolicibacterium smegmatis, IFO3083; Mycobacterium smegmatis IFO 3083, Gram +; read-out: Minimum Inhibitory Concentration
From the text: as §1

[10] = PCI219, Bacillus subtilis PCI 219, Gram +, read-out: Minimum Inhibitory Concentration
[11] = ATCC10536, read-out: Minimum Inhibitory Concentration
[12] = NIHJJC2, Escherichia coli NIHJ JC-2, Gram -, read-out: Minimum Inhibitory Concentration
[13] = IFO3512, Klebsiella pneumoniae IFO 3512, Gram -, read-out: Minimum Inhibitory Concentration
[14] = IFO3167, Proteus vulgaris IFO 3167, Gram -, read-out: Minimum Inhibitory Concentration
[15] = IFO12689, Ps. aeruginosa IFO 12689, Gram -, read-out: Minimum Inhibitory Concentration
[16] = IID1130, Ps. aeruginosa IID 1130, Gram -, read-out: Minimum Inhibitory Concentration
[17] = IID1210, Ps. aeruginosa IID 1210, Gram -, read-out: Minimum Inhibitory Concentration
[18] = V1, Pseudomonas aeruginosa V-1, Gram -, read-out: Minimum Inhibitory Concentration
[19] = IID604, Salmonella enteritidies IID 604, Gram -, read-out: Minimum Inhibitory Concentration
[20] = IID619, Ser. marcescens IID 619, Gram -, read-out: Minimum Inhibitory Concentration
[21] = IID620, Ser. marcescens IID 620, Gram -, read-out: Minimum Inhibitory Concentration
[22] = IID618, Serratia marcescens IID 618, Gram -, read-out: Minimum Inhibitory Concentration
[23] = ATCC14775, Sta. aureus ATCC 14775, Gram +, read-out: Minimum Inhibitory Concentration
[24] = Staphylococcus aureus 209P, Gram +
[25] = ATCC10536, E. coli ATCC 10536, Gram -, read-out: Minimum Inhibitory Concentration
[26] = Escherichia coli, NIHJJC2, read-out: Minimum Inhibitory Concentration
[27] = Proteus vulgaris, IFO3167, read-out: Minimum Inhibitory Concentration
[28] = Bacillus subtilis, PCI219, read-out: Minimum Inhibitory Concentration
[29] = Klebsiella pneumoniae, IFO3512, read-out: Minimum Inhibitory Concentration
[30] = IFO12689, read-out: Minimum Inhibitory Concentration
[31] = Salmonella, IID604, read-out: Minimum Inhibitory Concentration
[32] = ATCC14775, read-out: Minimum Inhibitory Concentration

SMILES | MIC [1, 10] [µg/mL] | MIC (E. coli ATCC 10536; [11]) [µg/mL] | MIC [2, 12] [µg/mL] | MIC [3, 13] [µg/mL] | MIC (Pr. vulgaris XK Denken; Pr. vulgaris XK Denken, Gram -) [µg/mL] | MIC [4, 14] [µg/mL] | MIC (Ps. aeruginosa IFO 12689; [15]) [µg/mL] | MIC (Ps. aeruginosa IID 1130; [16]) [µg/mL] | MIC (Ps. aeruginosa IID 1210; [17]) [µg/mL] | MIC [5, 18] [µg/mL] | MIC [6, 19] [µg/mL] | MIC (Ser. marcescens IID 619; [20]) [µg/mL] | MIC (Ser. marcescens IID 620; [21]) [µg/mL] | MIC [7, 22] [µg/mL] | MIC (Sta. aureus ATCC 14775; [23]) [µg/mL] | MIC [8, 24] [µg/mL] | MIC (E. coli ATCC 10536; [25]) [µg/mL] | MIC (Shigella sonnei IID 969) [µg/mL] | MIC [4, 27] [µg/mL] | other results
CCn1cc(C(=O)O)c(=O)c2cc(F)c(N3CCN(C4OC(=O)c5ccccc54)CC3)cc21 (stereo not drawn) [Example 28, 1-ethyl-1,4-dihydro-6-fluoro-4-oxo-7-(4-phthalidyl-1-piperazinyl)quinoline-3-carboxylic acid] | 0.2 (≈ 0.443 µM) | 0.1 (≈ 0.222 µM) | ≤ 0.05 | ≤ 0.05 | 0.2 (≈ 0.443 µM) | ≤ 0.05 | 1.56 (≈ 3.46 µM) | 1.56 (≈ 3.46 µM) | 1.56 (≈ 3.46 µM) | 0.78 (≈ 1.73 µM) | 0.1 (≈ 0.222 µM) | 0.2 (≈ 0.443 µM) | 0.1 (≈ 0.222 µM) | 0.1 (≈ 0.222 µM) | 3.13 (≈ 6.93 µM) | 0.78 (≈ 1.73 µM) | – | – | – | –
CCn1cc(C(=O)O)c(=O)c2cc(Br)c(N3CCN(C)CC3)cc21 [Example 23, 1-ethyl-6-bromo-1,4-dihydro-7-(4-methyl-1-piperazinyl)-4-oxoquinoline-3-carboxylic acid] | 0.78 (≈ 1.98 µM) | – | 0.39 (≈ 0.989 µM) | 0.39 (≈ 0.989 µM) | 3.13 (≈ 7.94 µM) | 0.78 (≈ 1.98 µM) | > 100 | > 100 | > 100 | 100 (≈ 254 µM) | 3.13 (≈ 7.94 µM) | 3.13 (≈ 7.94 µM) | 0.78 (≈ 1.98 µM) | 0.78 (≈ 1.98 µM) | 3.13 (≈ 7.94 µM) | 1.56 (≈ 3.96 µM) | 0.78 (≈ 1.98 µM) | 0.78 (≈ 1.98 µM) | – | –
CCn1cc(C(=O)O)c(=O)c2cc(F)c(N3CCN(Cc4ccc([N+](=O)[O-])cc4)CC3)cc21 [Example 27, 1-ethyl-1,4-dihydro-6-fluoro-7-[4-(p-nitrobenzyl)-1-piperazinyl]-4-oxo-3-carboxylic acid] | 0.1 (≈ 0.22 µM) | 6.25 (≈ 13.8 µM) | – | 0.1 (≈ 0.22 µM) | 12.5 (≈ 27.5 µM) | – | > 50 | – | – | > 50 | – | – | – | – | 3.13 (≈ 6.89 µM) | 1.56 (≈ 3.43 µM) | – | 6.25 (≈ 13.8 µM) | 6.25 (≈ 13.8 µM) | MIC [2, 26]: 6.25 µg/mL (≈ 13.8 µM)
C=Cn1cc(C(=O)O)c(=O)c2cc(F)c(N3CCN(C)CC3)cc21.Cl [Example 4, 1-vinyl-6-fluoro-7-(4-methyl-1-piperazinyl)-4-oxo-1,4-dihydroquinoline-3-carboxylic acid hydrochloride] | 0.39 | 0.2 | < 0.1 | < 0.1 | – | – | 3.13 | 6.25 | 3.13 | 3.13 | 0.78 | 0.78 | 0.39 | 0.39 | 3.13 | 1.56 | – | 0.2 | 0.2 | MIC (Pr. vulgaris XK Denken): 0.2 µg/mL
Cl.O=C(O)c1cn(CCF)c2cc(N3CCNCC3)c(F)cc2c1=O [Example 5, 1-(2-fluoroethyl)-6-fluoro-7-(1-piperazinyl)-4-oxo-1,4-dihydroquinoline-3-carboxylic acid hydrochloride] | – | 0.2 | – | – | – | – | – | – | – | – | – | – | – | – | – | – | – | < 0.1 | 0.2 | MIC [1, 28]: 0.2 µg/mL; MIC [2, 26]: < 0.1 µg/mL; MIC [3, 29]: < 0.1 µg/mL; MIC (Pr. vulgaris XK Denken): 0.39 µg/mL; MIC (Ps. aeruginosa IFO 12689; [30]): 3.13 µg/mL; MIC (Ps. aeruginosa IID 1130; IID1130, read-out: Minimum Inhibitory Concentration): 1.56 µg/mL; MIC (Ps. aeruginosa IID 1210; IID1210, read-out: Minimum Inhibitory Concentration): 3.13 µg/mL; MIC ([5]; Pseudomonas aeruginosa, V1, read-out: Minimum Inhibitory Concentration): 0.78 µg/mL; MIC [6, 31]: 0.78 µg/mL; MIC (Ser. marcescens IID 619; IID619, read-out: Minimum Inhibitory Concentration): 0.39 µg/mL; MIC (Ser. marcescens IID 620; IID620, read-out: Minimum Inhibitory Concentration): 0.2 µg/mL; MIC ([7]; Serratia marcescens, IID618, read-out: Minimum Inhibitory Concentration): 0.2 µg/mL; MIC (Sta. aureus ATCC 14775; [32]): 6.25 µg/mL; MIC ([8]; Staphylococcus aureus, 209P): 1.56 µg/mL
CN1CCN(c2cc3c(cc2F)c(=O)c(C(=O)O)cn3CCF)CC1 [Example 6, 1-(2-fluoroethyl)-6-fluoro-7-(4-methyl-1-piperazinyl)-4-oxo-1,4-dihydroquinoline-3-carboxylic acid] | – | – | < 0.1 | – | – | – | 3.13 (≈ 8.91 µM) | 6.25 (≈ 17.8 µM) | 6.25 (≈ 17.8 µM) | 3.13 (≈ 8.91 µM) | 0.78 (≈ 2.22 µM) | 0.2 (≈ 0.569 µM) | 0.2 (≈ 0.569 µM) | 0.2 (≈ 0.569 µM) | 0.78 (≈ 2.22 µM) | 0.39 (≈ 1.11 µM) | 0.2 (≈ 0.569 µM) | < 0.1 | < 0.1 | MIC [1, 28]: < 0.1 µg/mL; MIC [3, 29]: < 0.1 µg/mL; MIC (Pr. vulgaris XK Denken): < 0.1 µg/mL
CCn1cc(C(=O)O)c(=O)c2cc(Cl)c(N3CCN(CC(=O)O)CC3)cc21 [Example 14] | 50 (≈ 127 µM) | – | 12.5 (≈ 31.7 µM) | 12.5 (≈ 31.7 µM) | 12.5 (≈ 31.7 µM) | 25 (≈ 63.5 µM) | > 100 | – | – | > 100 | – | – | – | – | – | – | 12.5 (≈ 31.7 µM) | – | – | MIC [9]: > 100 µg/mL; MIC ([8]; Staphylococcus aureus, 209P): 50 µg/mL (≈ 127 µM)
CCn1cc(C(=O)O)c(=O)c2cc(F)c(N3CCNC(=O)C3)cc21 [Example 8, 1-ethyl-1,4-dihydro-6-fluoro-7-(3-oxo-1-piperazinyl)-4-oxoquinoline-3-carboxylic acid] | 0.78 (≈ 2.34 µM) | – | 0.39 (≈ 1.17 µM) | 0.1 (≈ 0.3 µM) | 0.39 (≈ 1.17 µM) | 0.78 (≈ 2.34 µM) | 25 (≈ 75 µM) | 25 (≈ 75 µM) | > 25 | 12.5 (≈ 37.5 µM) | 12.5 (≈ 37.5 µM) | 12.5 (≈ 37.5 µM) | 6.25 (≈ 18.8 µM) | 6.25 (≈ 18.8 µM) | 6.25 (≈ 18.8 µM) | 3.13 (≈ 9.39 µM) | 0.78 (≈ 2.34 µM) | – | – | –
CCn1cc(C(=O)O)c(=O)c2cc(Br)c(N3CCNCC3)cc21 [Example 22, 1-ethyl-6-bromo-dihydro-4-oxo-7-(1-piperazinyl)quinoline-3-carboxylic acid hydrochloride] | 1.56 | – | 0.39 | 0.39 | 1.56 | 0.39 | 50 | 50 | 100 | 12.5 | 1.56 | 3.13 | 0.78 | 0.78 | 12.5 | 3.13 | 0.78 | 0.39 | – | –
CCn1cc(C(=O)O)c(=O)c2cc(F)c(N3CCNCC3)nc21.Cl [Example 1, 1-ethyl-1,4-dihydro-6-fluoro-7-(1-piperazinyl)-4-oxo-1,8-naphthyridine-3-carboxylic acid hydrochloride] | 0.39 | – | 0.2 | 0.2 | 0.39 | 0.2 | – | 1.56 | 6.25 | 3.13 | – | 0.78 | 0.39 | 0.39 | 6.25 | 0.78 | 0.39 | – | – | MIC (Ps. aeruginosa IFO 12689; [30]): 6.25 µg/mL; MIC [6, 31]: 0.39 µg/mL
CCOC(=O)CN1CCN(c2cc3c(cc2Cl)c(=O)c(C(=O)O)cn3CC)CC1 [Example 13, 1-ethyl-6-chloro-7-(4-ethoxycarbonylmethyl-1-piperazinyl)-4-oxo-1,4-dihydroquinoline-3-carboxylic acid] | 3.13 (≈ 7.42 µM) | – | 100 (≈ 237 µM) | 6.25 (≈ 14.8 µM) | 50 (≈ 119 µM) | 100 (≈ 237 µM) | > 100 | – | – | > 100 | – | – | – | – | – | > 100 | 100 (≈ 237 µM) | – | – | MIC [9]: 25 µg/mL (≈ 59.3 µM)
CCn1cc(C(=O)O)c(=O)c2cc(F)c(N3CCN(Cc4ccc(N)cc4)CC3)cc21.Cl [Example 7, 1-ethyl-7-[(4-p-aminobenzyl)-1-piperazinyl]-1,4-dihydro-6-fluoro-4-oxo-quinoline-3-carboxylic acid hydrochloride] | – | 0.39 | – | – | 0.78 | 0.78 | 25 | 25 | 25 | 12.5 | 3.13 | 3.13 | – | 3.13 | – | – | – | – | – | MIC [1, 28]: 0.2 µg/mL; MIC [3, 29]: 0.1 µg/mL; MIC (Sta. aureus ATCC 14775; [32]): 0.39 µg/mL
